For data set [1], the system named is 37 monoaminergic receptors and transporters. As to the kind of experiment: Radioligand binding assay, whole panel. Conditions: concentrations as high as 10 µM. The procedure:
Currently available antidepressants are believed to act by modifying the activity of the brain monoaminergic system, [47]. We evaluated whether Mal-gluc and DHCA directly interact with the monoaminergic system using a radioligand binding assay.
Radioligand binding assays were performed as previously described. Briefly, crude membrane fractions prepared from a stable HEK cell line expressing recombinant receptors were mixed with a radiolabeled specific ligand and 10 µM of competitor compound (DHCA, Mal-gluc, or non-specific ligand). The percentage of radioligand binding was subsequently measured.

Data set [2] can be described thus: Cytotoxicity by high content screening (HCS). In kind it is cell-based. Conditions: human, HepG2 cells. An excerpt:
(§1) Based on the efficacy of DHCA/Mal-gluc in treating stress-induced depression, we initiated an in vitro toxicity and drug-like properties studies to investigate the potential of developing these two phytochemicals as novel therapies. […] At low concentrations, DHCA and Mal-gluc had no detectable effects on cell number, nuclear size, DNA structure, cell membrane permeability, mitochondrial mass, mitochondrial membrane potential or cytochrome C release in high content screening (HCS)[41] using HepG2 cells (Table 1). At high concentrations, Mal-gluc reduced cell number, increased nuclear size, […], and increased mitochondrial mass, with calculated EC50s beyond physiological concentration (Table 1).
(§2) MTT and LDH release assays were conducted in MSN-enriched primary neurons and in PBMCs[64]. Cellular cytotoxicity was conducted in HepG2 cells using high content screening (HCS) protocols. Briefly, HepG2 cells were plated on 384-well tissue culture treated black walled clear bottomed polystyrene plates and treated with varying concentrations of Mal-gluc or DHCA. The cells were loaded with the relevant dye/antibody for each cell-health marker following incubation, including cell count, markers for nuclear size, DNA structure, cell membrane permeability, mitochondrial mass, mitochondrial membrane potential and cytochrome C release. The plates were then scanned using an automated fluorescent cellular imager ArrayScanr (Thermo Scientific Cellomics).

The next data set concerns Rac1. Put plainly: Rac1 expression in E18 MSN-enriched primary culture (screening, dose response). Type of data set: cell-based, mouse. An excerpt: BDPP contains a variety of polyphenols. Orally consumed polyphenols are typically bioavailable in various organs and tissues as metabolites (phase II polyphenol conjugates and phenolic acids) following xenobiotic metabolism and gastrointestinal microbiome fermentation. It is possible that some metabolites may counteract the positive effect of the others. Therefore, if supplied as BDPP, the overall benefits might be reduced due to potential ‘cancellation’ effects. By identifying individual metabolites that selectively target key pathological mechanisms (e.g., Rac1 and IL-6) we can greatly improve the efficacy. We and others recently identified 21 BDPP-derived phenolic metabolites that accumulate in blood and/or in the CNS (14 polyphenolic metabolites and 7 phenolic acids, Supplementary Table 1)[25], [28], [33], among which 14 are currently accessible, [34]. We initiated a high-throughput screen of these metabolites for their ability to modulate IL-6 and Rac1. […]
Total RNA from MSN-enriched cultures or brain NAc was isolated using the RNeasy Mini Kit (Qiagen, Valencia, CA, USA) and reverse transcribed. Gene expression was measured in four replicates by quantitative RT-PCR using Maxima SYBR Green master mix (Fermentas) in ABI Prism 7900HT. […]

Another data set relates to HepG2 cells. Put plainly: Cytotoxicity by high content screening (HCS). Type of data set: cell-based.
Excerpt: as §1, §2

Where [3] appears, read: DHCA ↑ (NS, fit not statistically significant), NR = No response observed, read-out: Cytotoxicity by HCS (AC50), Mitochondrial membrane potential.
Setting [4] is: DHCA ↑, NR = No response observed, read-out: Cytotoxicity by HCS (AC50), Cytochrome C release.
The mark [5] stands for this setting: Malvidin-gluc ↑, NR = No response observed, read-out: Cytotoxicity by HCS (AC50), Mitochondrial mass.
The mark [6] stands for this setting: Malvidin-gluc ↑, NR = No response observed, read-out: Cytotoxicity by HCS (AC50), Nuclear size.
[7] abbreviates: Malvidin-gluc ↓, NR = No response observed, read-out: Cytotoxicity by HCS (AC50), Cell number.
The mark [8] stands for this setting: NR = No response observed, read-out: Cytotoxicity by HCS (AC50), DNA structure.
[9] abbreviates: both ↓, read-out: Cytotoxicity by HCS (AC50), Cell membrane permeability.

The source of these data is publication PMC5797143, “Epigenetic modulation of inflammation and synaptic plasticity promotes resilience against stress in mice” (Nature Communications, 2018).

What is called AC50 is the concentration giving half of the maximal activity seen. A word on the pEC50: it is the EC50 on a negative log10 scale, so that one unit is a factor of ten.

pEC50: −log10 of the molar value. Like-named read-outs stand apart in the source and are kept apart here.

On to `O=C(O)CCc1ccc(O)c(O)c1` [DHCA, 3(3,4-dihydroxy-phenyl) propionic acid], for which the “binding with any of the 37 receptors and transporters tested” value in data set [1] is listed as “no significant binding”. Also, the AC50 in data set [2] (setting [3]), in data set [2] (setting [4]), in data set [2] (setting [5]), in data set [2] (setting [6]), in data set [2] (setting [7]) and in data set [2] (setting [8]) was more than 200 µM each time. Further, the AC50 in data set [2] (setting [9]) came out at 56.6 µM.

On to `COc1cc(-c2[o+]c3cc(O)cc(O)c3cc2O[C@@H]2O[C@H](CO)[C@@H](O)[C@H](O)[C@H]2O)cc(OC)c1O` [Mal-gluc], for which the “primary screening, Rac1 expression” value in the data set with Rac1 (9 brain bioavailable metabolites screened) is “significantly increased Rac1 expression”. For the same compound, in the data set with Rac1 (E18 MSN-enriched primary culture, 16 h, read-out: calculated EC50, increase of Rac1 expression), the pEC50 was 8.45. Besides, the AC50 was more than 200 µM with HepG2 cells (setting [3]); more than 200 µM in the data set with HepG2 cells (setting [4]); 176 µM in the data set with HepG2 cells (setting [5]); 88.4 µM in the data set on HepG2 cells (setting [6]); 176 µM in the data set with HepG2 cells (setting [7]); more than 200 µM in the data set with HepG2 cells (setting [8]). Moreover, in the data set on HepG2 cells (setting [9]), the AC50 came out at 52.7 µM.
